Assay results as given in US20250145715A1, “B7-H3 TARGETING FUSION PROTEINS AND METHODS OF USE THEREOF” (GT Biopharma, Inc., priority 2021, published 2025).
Entries after “also recorded” stand apart in the source; their conditions may differ.

Legend:
[1] = test system: T cells (CD56−CD3+); assay: T cell proliferation in PBMCs, CellTrace Violet dilution; assay type: cell-based, human; conditions: 7 days
Procedure: FIGS. 2A-2H illustrates that cam1615B7-H3 TriKE induces potent, and specific, natural killer (NK) cell proliferation. Peripheral blood mononuclear cells (PBMCs) were CellTrace Violet labeled and incubated for seven days at 5 nM equimolar concentrations of rhIL-15 or cam1615B7-H3 TriKE. On day 7, the cells were harvested and stained for flow cytometric evaluation. […] FIG. 2B is a graph illustrating pooled data showing the overall proportion of NK cells that proliferated. FIG. 2C is a graph illustrating pooled data showing the proportion of NK cells that highly proliferated (measured as proliferation beyond three divisions). FIG. 2D is a graph illustrating pooled data showing NK cell counts in the cultures (N=9). FIG. 2E is a representative histogram showing T cell (CD56− CD3+) proliferation. FIG. 2F is a graph illustrating pooled data showing the overall proportion of T cells proliferated. FIG. 2G is a graph illustrating pooled data showing the proportion of T cells highly proliferated. FIG. 2H is a graph illustrating pooled data showing T cell counts in the cultures (N=9). * p<0.05, ** p<0.01, *** p<0.001.
The wild-type IL-15 moiety in the cam1615B7-H3 TriKE was designed to induce targeted delivery of a proliferative signal to NK cells. To test this, proliferation assays evaluating dilution of a CellTrace dye over a 7-day period were carried out on PBMCs treated with no treatment (NT), monomeric rhIL-15 (IL15), or the TriKE (cam1615B7-H3). At the end of the seven days, cells were harvested and proliferation was evaluated by gating on CD56+CD3− cells. […] Since IL-15 acts on both NK cells and T cells, specificity was evaluated next by gating on T cells (CD56-CD3+).
To measure the ability of the TriKE to specifically induce NK cell expansion via the IL-15 moiety, PBMCs from healthy donors were labeled with CellTrace Violet Proliferation Dye (Invitrogen, Carlsbad, CA, USA) according to kit specifications. After staining, cells were cultured with TriKEs at noted concentrations, or equimolar concentrations of controls, and incubated in a humidified atmosphere containing 5% CO2 at 37° C. for seven days. Cells were harvested, stained for viability with Live/Dead reagent (Invitrogen, Carlsbad, CA, USA) and surface stained for anti-CD56 PE/Cy7 (Biolegend, San Diego, CA, USA) and anti-CD3 PE-CF594 (BD Biosciences, Franklin Lakes, NJ, USA) to gate on the viable CD56+ CD3− NK cell population or the CD56-CD3+ T cell population. Data analysis was performed using FlowJo software (FlowJo LCC, version 7.6.5, Ashland, OR, USA).

[2] = test system: OVCAR5 ovarian cancer cells; assay: NK cell CD107a / IFNγ flow cytometry against OVCAR5; assay type: cell-based, human; conditions: 30 nM, E:T 2:1, 4 hrs; vs no treatment and rhIL-15 alone
Procedure: Healthy donor or ovarian cancer PBMC cells were incubated with ovarian tumor targets at 2:1 E:T ratio for 4 hrs with 30 nM TriKE or control condition. FIG. 30A is a graph illustrating pooled proportion of NK cells from healthy donors expressing CD107a+ (degranulation) against OVCAR8 targets (N=8). FIG. 30B is a graph illustrating pooled proportion of NK cells from healthy donors expressing IFNγ cytokine production against OVCAR8 targets (N=8). FIG. 30C is a graph illustrating pooled proportion of NK cells from healthy donors expressing CD107a+ (degranulation) against OVCAR3 targets (N=4). […] FIG. 30I is a graph illustrating that tumor killing was evaluated using IncuCyte imaging assay. […] The percentage of Live (Nuclight Red+Caspase 3/7−) tumor cells was quantified over a 48-h period and normalized to tumor alone. Readings were obtained every 15 min (representative of four separate experiments). * p<0.05, ** p<0.01, *** p<0.001, and **** p<0.0001.
ADCC was measured in a flow cytometry assay by evaluating degranulation via CD107a (lysosomal-associated membrane protein LAMP-1) and intracellular IFNγ production. […] Samples were washed and evaluated in an LSRII flow cytometer (BD Biosciences, San Jose, CA, USA).
The ability of cam1615B7-H3 TriKE to mediate NK cell activity against ovarian cancer cells was evaluated. […]

cam1615B7-H3: second-generation TriKE: humanized camelid anti-CD16 VHH, human wild-type IL-15, anti-B7-H3 mAb 376.96 scFv; SEQ ID NO:1
overall T cell proliferation ([1]; 5 nM equimolar, listed as cam1615B7-H3 TriKE): Minimal T cell proliferation; also recorded: some induction of overall T cell proliferation
T cell numbers in culture ([1]; 5 nM, vs untreated): did not differ between the untreated and TriKE-treated groups
T cells robustly proliferating (past three divisions) ([1]; 5 nM, vs untreated): significantly less proliferation than the untreated group
NK cell degranulation against OVCAR5 [2]: robust
NK cell intracellular IFNγ production against OVCAR5 [2]: robust
